Data published in PMC11255275, “Structural insights into the triple agonism at GLP-1R, GIPR and GCGR manifested by retatrutide” (Cell Discovery, 2024).

Tests used:
GLP-1R mutants [1] = target: T1, GLP-1R mutants (Homo sapiens, UniProt P43220, E387A); assay: cAMP accumulation, single-point mutated GLP-1R; type: cell-based; conditions: GLP-1R E387(7.42b)A; HEK-293T, 40 min, TR-FRET; mean ± S.E.M., n at least 3
T1 construct: expressed in transfected cells; host or cells: HEK-293T
Procedure: (§1) HEK-293T cells were maintained at 37°C in 5% CO2 incubator and seeded onto 6-well cell […]
(§2) culture plates before transfection. After overnight culture, the cells were transiently transfected […]
(§3) with various constructs using Lipofectamine 2000 transfection reagent (Invitrogen). After 24 h, […]
(§4) the transfected cells were seeded onto 384-microtiter plates at a density of 3,000 cells per well […]
(§5) in stimulation buffer (HBSS supplemented with 5 mM HEPES, 0.1% (w/v) casein and 0.5 mM […]
(§6) 3-isobutyl-1-methylxanthine). Different concentrations of retatrutide in stimulation buffer were […]
(§7) added, and the stimulation lasted for 40 min. The reaction was stopped by addition of cAMP […]
(§8) detection buffer containing Eu-cAMP tracer and ULight-anti-cAMP. Plates were then incubated for […]
(§9) 60 min at RT. Time-resolved FRET signals were measured at 620 nm and 665 nm, respectively, by […]
(§10) an EnVision multilabel plate reader (PerkinElmer). Data were analyzed in GraphPad PRISM 9.5 […]
(§11) and all values were normalized to that of the wild-type (WT).
(§12) Supplementary Fig. 5 Effects of receptor mutation on retatrutide-induced cAMP […]
(§13) accumulation. a-c, Signaling profiles of GLP-1R (a), GIPR (b) and GCGR (c) mutants. cAMP […]
(§14) accumulation was measured in wild-type (WT) and single-point mutated GLP-1R, GIPR or […]
(§15) GCGR expressing HEK-293T cells. cAMP levels were normalized to the maximum response […]
(§16) of the WT and dose-response curves were analyzed using a three-parameter logistic equation.
(§17) Data were generated and graphed as means ± S.E.M. of at least three independent experiments performed in quadruplicate.
(§18) (1 picture or pasted object on this page, not shown here)
(§19) Supplementary Ta b l e S 5 Effects of the ligand-binding pocket residue mutation on retatrutide- […]
(§20) induced cAMP signaling at GLP-1R, GIPR or GCGR. […]
(§21) cAMP levels were normalized to the maximum response of the wild-type (WT) and dose-response […]
(§22) curves were analyzed using a three-parameter logistic equation to obtain pEC50 and Emax values. The […]
(§23) experiments were carried out independently at least three times. Data shown are means ± S.E.M. One- […]
(§24) way ANOVA was used to determine statistical difference. N.D., values that could not be determined due […]
(§25) to incomplete curve fits. *P< 0.05, **P< 0.01, ***P< 0.001 and ****P<0.0001.

GLP-1R mutants [2] = target: T2, GLP-1R mutants (Homo sapiens, UniProt P43220, W214A); assay: cAMP accumulation, single-point mutated GLP-1R; type: cell-based; conditions: GLP-1R W214(ECL1)A; HEK-293T, 40 min, TR-FRET; mean ± S.E.M., n at least 3
T2 construct: expressed in transfected cells; host or cells: HEK-293T
T2 sequence (P43220 24-463 W214A): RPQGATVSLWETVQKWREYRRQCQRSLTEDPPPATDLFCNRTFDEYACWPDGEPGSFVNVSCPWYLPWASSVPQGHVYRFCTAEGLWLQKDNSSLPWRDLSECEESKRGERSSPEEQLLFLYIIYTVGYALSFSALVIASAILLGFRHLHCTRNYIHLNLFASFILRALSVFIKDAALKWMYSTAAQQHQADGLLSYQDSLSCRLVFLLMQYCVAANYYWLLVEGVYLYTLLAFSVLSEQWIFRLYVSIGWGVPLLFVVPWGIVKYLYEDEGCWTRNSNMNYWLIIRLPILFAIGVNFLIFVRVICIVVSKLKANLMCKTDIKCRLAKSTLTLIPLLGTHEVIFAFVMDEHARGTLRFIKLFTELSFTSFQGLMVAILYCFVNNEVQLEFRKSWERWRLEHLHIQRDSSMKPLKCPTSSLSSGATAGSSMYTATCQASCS
Procedure: as §1, §2, §3, §4, §5, §6, §7, §8, §9, §10, §11, §12, §13, §14, §15, §16, §17, §18, §19, §20, §21, §22, §23, §24, §25

GLP-1R mutants [3] = assay: cAMP accumulation, single-point mutated GLP-1R; type: cell-based, human; conditions: GLP-1R E138(1.33b)R, relative to WT
Procedure: as §1, §2, §3, §4, §5, §6, §7, §8, §9, §10, §11, §12, §13, §14, §15, §16, §17, §18, §19, §20, §21, §22, §23, §24, §25

GLP-1R mutants [4] = target: T3, GLP-1R mutants (Homo sapiens, UniProt P43220, W91A); assay: cAMP accumulation, single-point mutated GLP-1R; type: cell-based; conditions: GLP-1R W91(ECD)A, HEK-293T, 40 min, TR-FRET, mean ± S.E.M., n at least 3
T3 construct: expressed in transfected cells; host or cells: HEK-293T
T3 sequence (P43220 24-463 W91A): as the sequence (P43220 24-463 W214A) above, with W68A, A191W counted along it
Procedure: as §1, §2, §3, §4, §5, §6, §7, §8, §9, §10, §11, §12, §13, §14, §15, §16, §17, §18, §19, §20, §21, §22, §23, §24, §25

GLP-1R mutants [5] = target: T4, GLP-1R mutants (Homo sapiens, UniProt P43220, E138R); assay: cAMP accumulation, single-point mutated GLP-1R; type: cell-based; conditions: GLP-1R E138(1.33b)R; HEK-293T, 40 min, TR-FRET; mean ± S.E.M., n at least 3
T4 construct: expressed in transfected cells; host or cells: HEK-293T
T4 sequence (P43220 24-463 E138R): as the sequence (P43220 24-463 W214A) above, with E115R, A191W counted along it
Procedure: as §1, §2, §3, §4, §5, §6, §7, §8, §9, §10, §11, §12, §13, §14, §15, §16, §17, §18, §19, §20, §21, §22, §23, §24, §25

GLP-1R mutants [6] = target: T5, GLP-1R mutants (Homo sapiens, UniProt P43220, E364A); assay: cAMP accumulation, single-point mutated GLP-1R; type: cell-based; conditions: GLP-1R E364(6.53b)A, HEK-293T, 40 min, TR-FRET, mean ± S.E.M., n at least 3
T5 construct: expressed in transfected cells; host or cells: HEK-293T
T5 sequence (P43220 24-463 E364A): as the sequence (P43220 24-463 W214A) above, with A191W, E341A counted along it
Procedure: as §1, §2, §3, §4, §5, §6, §7, §8, §9, §10, §11, §12, §13, §14, §15, §16, §17, §18, §19, §20, §21, §22, §23, §24, §25

GLP-1R mutants [7] = target: T6, GLP-1R mutants (Homo sapiens, UniProt P43220, Y145Q); assay: cAMP accumulation, single-point mutated GLP-1R; type: cell-based; conditions: GLP-1R Y145(1.40b)Q, HEK-293T, 40 min, TR-FRET, mean ± S.E.M., n at least 3
T6 construct: expressed in transfected cells; host or cells: HEK-293T
T6 sequence (P43220 24-463 Y145Q): as the sequence (P43220 24-463 W214A) above, with Y122Q, A191W counted along it
Procedure: as §1, §2, §3, §4, §5, §6, §7, §8, §9, §10, §11, §12, §13, §14, §15, §16, §17, §18, §19, §20, §21, §22, §23, §24, §25

GLP-1R mutants [8] = target: T7, GLP-1R mutants (Homo sapiens, UniProt P43220, R299A); assay: cAMP accumulation, single-point mutated GLP-1R; type: cell-based; conditions: GLP-1R R299(ECL2)A, HEK-293T, 40 min, TR-FRET, mean ± S.E.M., n at least 3
T7 construct: expressed in transfected cells; host or cells: HEK-293T
T7 sequence (P43220 24-463 R299A): as the sequence (P43220 24-463 W214A) above, with A191W, R276A counted along it
Procedure: as §1, §2, §3, §4, §5, §6, §7, §8, §9, §10, §11, §12, §13, §14, §15, §16, §17, §18, §19, §20, §21, §22, §23, §24, §25

GLP-1R mutants [9] = target: T8, GLP-1R mutants (Homo sapiens, UniProt P43220, W39A); assay: cAMP accumulation, single-point mutated GLP-1R; type: cell-based; conditions: GLP-1R W39(ECD)A, HEK-293T, 40 min, TR-FRET, mean ± S.E.M., n at least 3
T8 construct: expressed in transfected cells; host or cells: HEK-293T
T8 sequence (P43220 24-463 W39A): as the sequence (P43220 24-463 W214A) above, with W16A, A191W counted along it
Procedure: as §1, §2, §3, §4, §5, §6, §7, §8, §9, §10, §11, §12, §13, §14, §15, §16, §17, §18, §19, §20, §21, §22, §23, §24, §25

GIPR mutants [10] = target: T9, GIPR mutants (Homo sapiens, UniProt P48546, E288T); assay: cAMP accumulation, single-point mutated GIPR; type: cell-based; conditions: GIPR E288(45.52b)T, HEK-293T, 40 min, TR-FRET, mean ± S.E.M., n at least 3
T9 construct: expressed in transfected cells; host or cells: HEK-293T
T9 sequence (P48546 22-466 E288T): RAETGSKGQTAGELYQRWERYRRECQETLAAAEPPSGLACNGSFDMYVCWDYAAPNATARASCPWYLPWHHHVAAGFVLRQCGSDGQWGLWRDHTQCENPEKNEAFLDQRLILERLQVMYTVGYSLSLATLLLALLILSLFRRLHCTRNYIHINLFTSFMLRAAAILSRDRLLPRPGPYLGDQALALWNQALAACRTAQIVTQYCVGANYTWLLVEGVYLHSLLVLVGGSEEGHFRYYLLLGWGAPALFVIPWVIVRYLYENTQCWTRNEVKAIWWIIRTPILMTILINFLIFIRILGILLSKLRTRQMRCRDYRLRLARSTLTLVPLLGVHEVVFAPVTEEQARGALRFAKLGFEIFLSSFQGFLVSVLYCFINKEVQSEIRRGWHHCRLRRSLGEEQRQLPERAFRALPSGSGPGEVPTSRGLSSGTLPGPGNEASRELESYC
Procedure: as §1, §2, §3, §4, §5, §6, §7, §8, §9, §10, §11, §12, §13, §14, §15, §16, §17, §18, §19, §20, §21, §22, §23, §24, §25

GIPR mutants [11] = target: T10, GIPR mutants (Homo sapiens, UniProt P48546, R131E); assay: cAMP accumulation, single-point mutated GIPR; type: cell-based; conditions: GIPR R131(1.33b)E
T10 construct: expressed in transfected cells; host or cells: HEK-293T
T10 sequence (P48546 22-466 R131E): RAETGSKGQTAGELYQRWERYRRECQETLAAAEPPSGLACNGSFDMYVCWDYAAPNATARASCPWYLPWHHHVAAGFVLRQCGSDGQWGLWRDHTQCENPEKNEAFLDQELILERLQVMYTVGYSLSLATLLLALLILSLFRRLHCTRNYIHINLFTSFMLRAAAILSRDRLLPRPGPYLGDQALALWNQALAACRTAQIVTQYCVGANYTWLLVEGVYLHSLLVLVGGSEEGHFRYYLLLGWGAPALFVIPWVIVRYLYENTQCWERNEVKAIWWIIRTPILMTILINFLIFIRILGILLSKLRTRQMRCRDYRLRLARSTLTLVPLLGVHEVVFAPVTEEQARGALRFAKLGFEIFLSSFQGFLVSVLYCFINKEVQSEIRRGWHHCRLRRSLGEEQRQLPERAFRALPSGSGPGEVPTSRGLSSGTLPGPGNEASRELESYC
Procedure: as §1, §2, §3, §4, §5, §6, §7, §8, §9, §10, §11, §12, §13, §14, §15, §16, §17, §18, §19, §20, §21, §22, §23, §24, §25

T1 sequence (P43220 24-463 E387A): as the sequence (P43220 24-463 W214A) above, with A191W, E364A counted along it

For `CC[C@H](C)[C@H](NC(=O)[C@H](Cc1ccccc1)NC(=O)[C@H](C)NC(=O)C(C)(C)NC(=O)[C@H](CCC(N)=O)NC(=O)[C@H](C)NC(=O)[C@H](CCCCNC(=O)COCCOCCNC(=O)CC[C@H](NC(=O)CCCCCCCCCCCCCCCCCCC(=O)O)C(=O)O)NC(=O)[C@H](CCCCN)NC(=O)[C@H](CC(=O)O)NC(=O)[C@H](CC(C)C)NC(=O)[C@](C)(CC(C)C)NC(=O)[C@@H](NC(=O)[C@H](CO)NC(=O)[C@H](Cc1ccc(O)cc1)NC(=O)[C@H](CC(=O)O)NC(=O)[C@H](CO)NC(=O)[C@@H](NC(=O)[C@H](Cc1ccccc1)NC(=O)[C@@H](NC(=O)CNC(=O)[C@H](CCC(N)=O)NC(=O)C(C)(C)NC(=O)[C@@H](N)Cc1ccc(O)cc1)[C@@H](C)O)[C@@H](C)O)[C@@H](C)CC)C(=O)N[C@@H](CCC(=O)O)C(=O)N[C@@H](Cc1ccc(O)cc1)C(=O)N[C@@H](CC(C)C)C(=O)N[C@@H](CC(C)C)C(=O)N[C@@H](CCC(=O)O)C(=O)NCC(=O)NCC(=O)N1CCC[C@H]1C(=O)N[C@@H](CO)C(=O)N[C@@H](CO)C(=O)NCC(=O)N[C@@H](C)C(=O)N1CCC[C@H]1C(=O)N1CCC[C@H]1C(=O)N1CCC[C@H]1C(=O)N[C@@H](CO)C(N)=O` [retatrutide], the EC50 (GLP-1R mutants [1]) was 9.33 pM, the “Emax ± S.E.M. (% WT)” value (GLP-1R mutants [1]) was 100.40 ± 3.44 % WT and the EC50 (GLP-1R mutants [2]) was 5.62 pM. For the same compound, the “Emax ± S.E.M. (% WT)” value (GLP-1R mutants [2]) was 100.98 ± 3.27 % WT, the “change of retatrutide potency by mutation” value (GLP-1R mutants [3]) was “modestly increased” and the “Emax ± S.E.M. (% WT)” value (GLP-1R mutants [4]) was 102.36 ± 4.73 % WT. The EC50 (GLP-1R mutants [4]; ****P < 0.0001) was 83.2 pM, the EC50 (GLP-1R mutants [5]) was 3.55 pM and the “Emax ± S.E.M. (% WT)” value (GLP-1R mutants [5]) was 100.84 ± 3.40 % WT. The “Emax ± S.E.M. (% WT)” value (GLP-1R mutants [6]) was 98.84 ± 4.77 % WT, the EC50 (GLP-1R mutants [6]; ***P < 0.001) was 40.7 pM and the EC50 (GLP-1R mutants [7]; ****P < 0.0001) was 355 pM. The “Emax ± S.E.M. (% WT)” value (GLP-1R mutants [7]; ***P < 0.001) was 73.89 ± 5.95 % WT, the “Emax ± S.E.M. (% WT)” value (GLP-1R mutants [8]) was 101.97 ± 3.92 % WT and the EC50 (GLP-1R mutants [8]; ***P < 0.001) was 41.7 pM. The “Emax ± S.E.M. (% WT)” value (GLP-1R mutants [9]) was 101.39 ± 3.58 % WT, the EC50 (GLP-1R mutants [9]; **P < 0.01) was 38.9 pM and the “Emax ± S.E.M. (% WT)” value (GIPR mutants [10]) was 100.81 ± 2.93 % WT. For the same compound, the EC50 (GIPR mutants [10]; **P < 0.01) was 8.91 pM, the “change of retatrutide potency by mutation” value (GIPR mutants [11]; relative to WT, modestly) was “decreased” and the “Emax ± S.E.M. (% WT)” value (GIPR mutants [11]; HEK-293T, 40 min, TR-FRET, mean ± S.E.M., n at least 3) was 98.44 ± 3.88 % WT. The EC50 (GIPR mutants [11]; HEK-293T, 40 min, TR-FRET, mean ± S.E.M., n at least 3, **P < 0.01) was 9.33 pM.
